The text below walks through data of US8357697B2, “Substituted 3-isobutyl-9,10-dimethoxy-1,3,4,6,7,11b-hexahydro-2H-pyrido[2,1-A]isoquinolin-2-ol compounds and methods relating thereto” (Neurocrine Biosciences, Inc., priority 2006, dated 2013).

One data set has as its system human hepatocytes. Nature of the data set: Stability of compounds in human hepatocytes. It counts as in vitro ADME. The following applies: 1 μM, 0-60 min, FIGS. 1a-1c. The method, then:
Cryopreserved human hepatocytes from 12 individual donors were thawed according to the supplier's instruction and pooled. Cell viability was determined to be more than 85%. TBZ (1 μM) was incubated with individual human hepatocytes (1×10^6 cells/mL) at 37° C. with 95% O2 and 5% CO2 for 0, 5, 15, 30 and 60 min. TBZ in DMSO was added to achieve 1.0 μM (DMSO was less than 0.5% v/v). All concentrations and cell contents were relative to the final incubation volume of 100 μL. The incubation was terminated by mixing 100 μL of ice-cold acetonitrile in 1% formic acid containing dextromethorphan (1.0 μM) as internal standard for LC/MS analysis. Precipitated proteins were removed by centrifugation (1500-2500×g for 30 min at 15° C.).
Briefly, samples were separated with a gradient HPLC method by Acquity HPLC systems consisting of a pump, a column heater (40° C.), and a vacuum degasser/mobile phase tray. Mobile phase A was water in 0.1% formic acid and mobile phase B was acetonitrile in 0.1% formic acid. The gradient elution was as follows: mobile phase B: 0-10% at 0-0.75 min, 40-90% at 1.25-1.5 min, 90-0% at 1.75-2.0 min, and run time was 3 min. The reverse phase column was a BEH C18 column (50×2.1 mm, 1.7 μm). Flow rate was 0.8 mL/min and injection volume was 7.5 μL. The samples were monitored with API-3000 mass spectrometer and ESI ion source in positive mode, TBZ m/z 318.4>220.4, HTBZ m/z 320.3>302.3, and dextromethorphan m/z 272.2>147.2.

For data set [1] the following is noted: humans, background statement; cited from earlier work.
A further data set deals with T1, Dopamine D2S receptor (Homo sapiens, UniProt P14416).
T1 construct: expressed in transfected cells; host or cells: CHO cells
T1 sequence (P14416 1-414 isoform P14416-2): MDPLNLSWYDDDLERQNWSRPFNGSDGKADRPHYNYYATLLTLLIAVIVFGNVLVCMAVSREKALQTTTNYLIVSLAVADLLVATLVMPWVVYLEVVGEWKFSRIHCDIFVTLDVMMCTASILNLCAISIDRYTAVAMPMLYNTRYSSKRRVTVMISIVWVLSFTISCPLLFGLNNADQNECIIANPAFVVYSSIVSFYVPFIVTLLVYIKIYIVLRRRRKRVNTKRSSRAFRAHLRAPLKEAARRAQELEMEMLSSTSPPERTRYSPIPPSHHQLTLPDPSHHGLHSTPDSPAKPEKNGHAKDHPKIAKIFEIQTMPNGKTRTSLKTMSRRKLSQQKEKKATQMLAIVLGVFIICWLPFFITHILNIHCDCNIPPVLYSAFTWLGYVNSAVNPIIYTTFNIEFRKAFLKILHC
Put plainly: Dopamine D2S receptor competition binding ([3H]spiperone). The conditions noted are these: for inhibition at 10 µM: read-out: D2S (h) % inhibition at 10 uM. The method, then:
(§1) The four HTBZ stereoisomers and compounds of the present invention were tested for receptor specificity by screening against a panel of 80 receptors, ion channels and transporters (High-throughput profile, Cerep, S. A.).
(a) Dopamine D2S receptor:
Reference: Grandy et al., (1989) Proc. Natl. Acad. Sci. USA 86: 9762-6
(§2) Source: Human recombinant (CHO cells)
Ligand: [3H]spiperone, 1.0 nM
Incubation time/temperature: 90 min/25° C.
Incubation buffer: 50 mM HEPES, 100 mM NaCl, 1 mM EDTA, 3 mM MgCl2, pH 7.4
Non-specific ligand: clozapine (10 μM)
Specific binding: 600 cpm
(§3) Quantitation method: Scintillation counting

The next data set has as its target T2, Dopamine D4.4 receptor (Homo sapiens, UniProt P21917).
T2 construct: expressed in transfected cells; host or cells: CHO cells
T2 sequence (P21917 1-419): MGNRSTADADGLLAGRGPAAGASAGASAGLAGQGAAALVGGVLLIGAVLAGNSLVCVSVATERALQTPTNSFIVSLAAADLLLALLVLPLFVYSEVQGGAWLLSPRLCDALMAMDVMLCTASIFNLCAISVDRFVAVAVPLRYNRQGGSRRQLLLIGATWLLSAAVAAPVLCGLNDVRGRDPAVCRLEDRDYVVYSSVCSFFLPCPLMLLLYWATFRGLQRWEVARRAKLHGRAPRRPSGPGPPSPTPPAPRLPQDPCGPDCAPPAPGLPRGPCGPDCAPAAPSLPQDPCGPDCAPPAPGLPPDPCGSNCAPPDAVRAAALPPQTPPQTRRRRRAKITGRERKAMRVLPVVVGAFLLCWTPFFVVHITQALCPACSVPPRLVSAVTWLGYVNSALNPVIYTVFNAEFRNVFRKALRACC
Put plainly: Dopamine D4.4 receptor competition binding ([3H]spiperone). The conditions noted are these: for inhibition at 1 µM: read-out: D4.4 (h) % inhibition at 1 uM; for inhibition at 10 µM: read-out: D4.4 (h) % inhibition at 10 uM. The procedure:
as §1
(b) Dopamine D4.4 receptor:
as §2
Ligand: [3H]spiperone, 0.3 nM
Incubation time/temperature: 60 min./22° C.
Non-specific ligand: (+)butaclamol (10 μM)
as §3

In the next data set the target is T3, VMAT2 (Rattus norvegicus, UniProt Q01827).
T3 construct: on rat forebrain homegenate (100 μg membrane protein per well); from tissue; host or cells: rat striatum (Procedure A, vesicles) or Sprague-Dawley rat forebrain homogenate (Procedure B)
T3 sequence (Q01827 whole entry): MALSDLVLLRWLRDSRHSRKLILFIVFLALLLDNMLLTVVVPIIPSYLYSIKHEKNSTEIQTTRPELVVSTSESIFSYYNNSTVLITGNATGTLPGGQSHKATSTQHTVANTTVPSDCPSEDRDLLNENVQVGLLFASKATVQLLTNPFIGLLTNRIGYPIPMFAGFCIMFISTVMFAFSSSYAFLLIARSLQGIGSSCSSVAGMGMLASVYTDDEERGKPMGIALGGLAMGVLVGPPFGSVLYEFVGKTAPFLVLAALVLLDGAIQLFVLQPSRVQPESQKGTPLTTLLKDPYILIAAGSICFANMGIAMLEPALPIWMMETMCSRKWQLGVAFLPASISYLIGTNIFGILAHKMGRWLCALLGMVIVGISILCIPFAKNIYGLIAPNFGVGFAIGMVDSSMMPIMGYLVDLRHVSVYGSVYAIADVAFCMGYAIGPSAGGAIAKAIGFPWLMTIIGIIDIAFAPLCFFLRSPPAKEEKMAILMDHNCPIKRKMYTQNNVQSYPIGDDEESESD
Put plainly: VMAT2 competition binding assay ([3H]-dihydrotetrabenazine). The following applies: mean±SD, n in brackets; at least two independent experiments; read-out: pKi (n), VMAT2 affinity from competition binding studies (converted).

The test system of data set [2] is panel of 80 receptors, ion channels and transporters. Nature of the data set: Receptor selectivity binding assays (Cerep high-throughput profile). The conditions noted are these: versus the dopamine receptors tested. The method, then: as §1
Data set [3] can be described thus: Stability in rat liver microsomes. It counts as in vitro ADME. The following applies: 1 μM, 0-60 min, FIGS. 2a-2f. (Liver microsomes are a subcellular fraction often used to study metabolism.)
Data set [4] can be described thus: Stability in dog liver microsomes. It counts as in vitro ADME. The following applies: 1 μM, 0-60 min, FIGS. 2a-2f.
A short description of data set [5]: Stability in human liver microsomes. The conditions noted are these: 1 μM, 0-60 min, FIGS. 2a-2f. It counts as in vitro ADME. The method, then: Briefly, pooled human liver microsomes (0.1 or 0.5 mg/mL; n>10; mixed gender) were incubated at 37° C. with the test compound in the presence of an NADPH-generating system containing 50 mM, pH 7.4 potassium phosphate buffer, 3 mM magnesium chloride, 1 mM EDTA, 1 mM NADP, 5 mM G-6-P, and 1 Unit/mL G-6-PD.
Incubations were conducted in six modified 2.0-mL, 96-well, deep-well plates in 1 μM of each compound (0.01% DMSO) with a total volume of 250 μl. Each plate, representing a single time point, contained 96 Titertube® Micro Tubes allowing for duplicates of 48 compounds at each time point (0, 5, 10, 20, 40, and 60 minutes). Reaction was stopped by the addition of an appropriate stop reagent (0.3 mL of acetonitrile containing a proprietary internal standard). Precipitated proteins were removed by centrifugation for 15 min at 3000 rpm, and the supernatant fluid (˜0.1 mL) was analyzed by LC/MS for the % of parent compound remaining.
Samples were separated with a gradient HPLC method by Agilent LC systems consisting of a pump, a column heater (40° C.), and a vacuum degasser/mobile phase tray. Mobile phase A was water in 0.1% formic acid and mobile phase B was acetonitrile in 0.1% formic acid. […] The samples were monitored with API-3000 mass spectrometer and ESI ion source in positive mode, TBZ m/z 318.4>220.4, HTBZ m/z 320.3>302.3, and dextromethorphan m/z 272.2>147.2.

A short description of data set [6]: Pharmacokinetic evaluation in rat, single oral dose. It counts as in vivo. The method, then:
In brief, single oral dose (10 mg/kg) of 2-1 and 3-1 in 10% PEG in 0.25% methylcellulose in milli Q water was administered to rats (3 rats/dose) for a pharmacokinetic evaluation. Serial sampling was used to collect blood samples, which were taken from each treated animal at nine time points ranging from pre-dose to 24 hours post dose (0, 0.25, 0.5, 1, 2, 4, 6, 8 and 24 hours) for the oral administration. Plasma samples were stored at −80° C. or below until analysis.
Plasma samples were thawed on ice, and 50 μL of plasma was transferred to a 96-well plate. Plasma proteins were precipitated by addition of pre-chilled 150 μL acetonitrile (ACN) containing 75 ng/mL internal standard. Additional 50 μL of ACN/water (60:40) was added into each sample. Calibration curve samples were prepared by a serial dilution in ACN/water (60:40). Fifty microliter of each standard sample was transferred to a 96-well plate followed by adding 150 μL acetonitrile (ACN) containing 75 ng/mL internal standard and 50 μL blank rat plasma. The plates were capped, mixed and centrifuged at 3000 rpm for 20 min. The supernatant was collected and injected into a LC-MS/MS system for quantification. […] of QC samples (4, 40, 400, 800 ng/ml) for 3-1,2-1 and 1d.1 were used as quality control for the studies needed and prepared in a same way as the standards. Quantification was performed by fitting peak area ratios to a weighted (1/x^2) linear calibration curve.
(§4) Descriptive pharmacokinetics were derived and evaluated based on the plasma concentrations of 3-1, 2-1 and 1d.1 from each individual […]. Pharmacokinetic parameters were determined using Non-Compartmental Analysis of the plasma concentration-time profiles of 3-1, 2-1 and 1d.1 in WinNonlin pharmacokinetic modeling software Professional Version 5.0.1 program (Pharsight Corporation, Mountain View, Calif.).

Data set [7] can be described thus: Pharmacokinetic evaluation in dog, single oral dose. It counts as in vivo. The following applies: oral 10 mg/kg (2-1), FIGS. 3c-3d. The procedure: In brief, a single oral dose (6.1 mg/kg for 3-1 and 10 mg/kg for 2-1) in 10% PEG in 0.25% methylcellulose in milli Q water was administered to dogs (3 dogs/dose) for a pharmacokinetic evaluation. Serial sampling was used to collect blood samples, which were taken from each treated animal at nine time points ranging from pre-dose to 24 hours post dose ([…]) for the oral administration. Plasma samples were stored at −80° C. or below until analysis.
Plasma samples were thawed on ice, and 50 μL of plasma was transferred to a 96-well plate. Plasma proteins were precipitated by addition of pre-chilled 150 μL acetonitrile (ACN) containing 75 ng/mL internal standard. Additional 50 μL of ACN/water (60:40) was added into each sample. […] The supernatant was collected and injected into a LC-MS/MS system for quantification. […] Quantification was performed by fitting peak area ratios to a weighted (1/x^2) linear calibration curve.
as §4

pKi: −log10 of the molar value.

Protocol for VMAT2: Preparation of Rat Striatal Vesicles
Rat striata from three rats are pooled and homogenized in 0.32 M sucrose. The homogenate is then centrifuged at 2,000×g for 10 min at 4° C. and the resulting supernatant is centrifuged at 10,000×g for 30 min at 4° C. The resulting pellet containing the enriched synaptosomal fraction (2 mL) is subjected to osmotic shock by addition of 7 mL of distilled H2O, and subsequently the suspension is homogenized. The osmolarity is restored by the addition of 0.9 mL of 0.25 M HEPES and 0.9 mL of 1.0 M neutral L-(+)-tartaric acid dipotassium salt buffer (pH 7.5), followed by a 20 min centrifugation (20,000×g at 4° C.). […]
Aliquots of the vesicle suspension (0.16 mL, 15 μg of protein/mL) are incubated with competitor compounds (ranging from 1E-6M to 1E-12M) and 2 nM [^3H]-dihydrotetrabenazine (HTBZ; specific activity: 20 Ci/mmol, American Radiolabeled Chemicals, Inc) for 1 h at room temperature in a total volume of 0.5 mL. […] Nonspecific binding is determined using 20 μM tetrabenazine (TBZ). […] Bound radioactivity is determined by scintillation spectrometry.
Following incubation at 25° C. for two hours, bound radioligand was collected by rapid filtration onto GF/B glass fiber filters using a Unifilter-96 Harvester (PerkinElmer). […] Bound radioligand was quantified by scintillation counting using a Topcount NXT (PerkinElmer). […]

For the molecule `COc1cc2c(cc1OC)C1CC(=O)C(CC(C)C)CN1CC2` (racemic) [Tetrabenazine, 3-Isobutyl-9,10-dimethoxy-1,3,4,6,7,11b-hexahydro-2H-pyrido[2,1-a]isoquinolin-2-one, reference compound], the “conversion in human hepatocytes to HTBZ (tetrabenazine) or to 1d.1 (compounds 2-1, 3-1)” value (“conversion in human hepatocytes to HTBZ” below) in the data set on human hepatocytes is on record as “rapid”. The bioavailability result in data set [1] was “fairly low and variable”.

For `COc1cc2c(cc1OC)[C@H]1C[C@@H](O)[C@H](CC(C)C)CN1CC2` [2R, 3R, 11bR-HTBZ, (2R,3R,11bR)-3-isobutyl-9,10-dimethoxy-1,3,4,6,7,11b-hexahydro-2H-pyrido[2,1-a]isoquinolin-2-ol], the inhibition at 10 µM on Dopamine D2S receptor was -6%. Moreover, at Dopamine D4.4 receptor, the inhibition at 1 µM turned out to be 0%.

For the molecule `COc1cc2c(cc1OC)[C@@H]1C[C@@H](O)[C@@H](CC(C)C)CN1CC2` [2R, 3S, 11bS-HTBZ], on Dopamine D2S receptor, the negative logarithm of the Ki (pKi) was 7.24 and the “binding/inhibition at D2(S) (in words)” value is on record as “high affinity binding”. Also, on Dopamine D4.4 receptor, the pKi was 7.17.

Consider `COc1cc2c(cc1OC)[C@H]1C[C@H](O)[C@H](CC(C)C)CN1CC2` [2S, 3R, 11bR-HTBZ, (2S,3R,11bR)-3-isobutyl-9,10-dimethoxy-1,3,4,6,7,11b-hexahydro-2H-pyrido[2,1-a]isoquinolin-2-ol], for which, on Dopamine D2S receptor, the “binding/inhibition at D2(S) (in words)” value was “some minor inhibition”. In addition, on Dopamine D2S receptor (read-out: D2S (h) % inhibition at 30 uM), the inhibition at 30 µM was found to be 17%. Also, at Dopamine D4.4 receptor, the “inhibition at dopamine D4.4 receptor (in words)” value was “some minor inhibition” and the inhibition at 10 µM was found to be 30%.

`COc1cc2c(cc1OC)[C@@H]1C[C@H](O)[C@@H](CC(C)C)CN1CC2` [2S, 3S, 11bS-HTBZ]: at Dopamine D2S receptor, the negative logarithm of the Ki (pKi) was 6.72 and the “binding/inhibition at D2(S) (in words)” value was “high affinity binding”. In addition, the inhibition at 1 µM on Dopamine D4.4 receptor is 9%.

As for `COc1cc2c(cc1OC)[C@H]1C[C@@H](OC(=O)[C@@H](N)C(C)C)[C@H](CC(C)C)CN1CC2` [Compound 2-1, (S)-2-Amino-3-methyl-butyric acid (2R,3R,11bR)-3-isobutyl-9,10-dimethoxy-1,3,4,6,7,11b-hexahydro-2H-pyrido[2,1-a]isoquinolin-2-yl ester], the Ki at VMAT2 is 200 nM. Also, the inhibition at 10 µM was 2% on Dopamine D2S receptor and 13% at Dopamine D4.4 receptor. Moreover, the “selectivity for VMAT2 (in words)” value in data set [2] is “demonstrated selectivity for VMAT2”. In addition, the “conversion in human hepatocytes to HTBZ” value with human hepatocytes is “comparatively slow”. In addition, in [3], the “conversion to 1d.1 in rat liver microsomes, compared with compound 3-1” value is reported as “slower”. Besides, in data set [4], the “conversion to 1d.1 in dog liver microsomes, compared with compound 3-1” value is reported as “slower”. Further, in [5], the “conversion to 1d.1 in human liver microsomes, compared with compound 3-1” value was “slower”. Also, the “plasma half-life of 1d.1 upon oral administration of compound 2-1 relative to compound 3-1” value in [6] (oral 10 mg/kg, FIGS. 3a-3b) is 2-3 times; in [7], 2-3 times.

For `CCOC(=O)O[C@@H]1C[C@@H]2c3cc(OC)c(OC)cc3CCN2C[C@H]1CC(C)C` [Compound 3-1, Carbonic acid ethyl ester (2R,3R,11bR)-3-isobutyl-9,10-dimethoxy-1,3,4,6,7,11b-hexahydro-2H-pyrido[2,1-a]isoquinolin-2-yl ester], on VMAT2, the Ki was 12.6 nM. Also, the inhibition at 10 µM on Dopamine D2S receptor and on Dopamine D4.4 receptor was 15% in each case. For the same molecule, the “selectivity for VMAT2 (in words)” value in data set [2] is given as “demonstrated selectivity for VMAT2”. Besides, the “conversion in human hepatocytes to HTBZ” value with human hepatocytes was “rapid”. Moreover, the “parent compound in rat plasma after oral administration” value in data set [6] (oral 10 mg/kg, limit of quantification 1 ng/mL) was “No 3-1 was detected”. Besides, the “rat plasma concentration time profile of 1d.1 from 3-1 compared with 1d.1 administered orally” value in data set [6] (oral, FIG. 3a) was “indistinguishable”.

As usually defined, the inhibition is the change of the read-out against control, counted positive when it falls. Usually pKi stands for the Ki on a negative log10 scale, so that one unit is a factor of ten.
